US20170312253A1 (The Third Affiliated Hospital, Third Military Medical …, priority 2014, published 2017)

What was measured:
Aβ fibers (Aβ 42) = Aβ fibers (Aβ 42) (Homo sapiens, UniProt P05067); assay: Thioflavin T fluorescence test, disaggregation of Aβ fibers; type: biochemical; conditions: preformed Aβ fibers, Edaravone 0-100 μM, three days
Aβ42 = Aβ42 (Homo sapiens, UniProt P05067); assay: Western blot determination of aggregation-inhibitive effect on Aβ; type: biochemical; conditions: read-out: inhibition of Aβ from forming aggregates (Western blot)
[1] = tested on: APPswe/PS1DE9 (AD) transgenic mice; assay: Open field test; type: in vivo; conditions: AD mice vs control group
Experimental: APPswe/PS1DE9 (AD) transgenic mice were purchased from Jackson Laboratory, USA (No. 005864), raised in the SPF grade animal house of The Third Affiliated Hospital of The Third Military Medical University. All the processes and correlated experiments applied to the mice were approved and filed with the Animal Ethics Committee of the Third Military Medical University. […] Alternatively, the daily dose for the prophylactic group may be 6.4 mg/kg, and the daily dose for the treatment group may be 12.8 mg/kg. Administration from 3-month old to 9-month old is the prophylactic test, and administration from 9-month old to 12-month old is the therapeutic test After reaching a stated time, the mice in each group received behavioral tests according to the method in the follows. Three mice in each group were taken for Golgi staining. […] The entire process was recorded by video, and analyzed with an image analysis software (ANY-maze, Stoelting). In the platform test, the escape path length and escape latency were measured and calculated. In the probe test, the time in each quadrant and the time across platform were measured. […] In the open field test, the mouse was put in the center of an open field for 3 min, and its path was recorded by a tracking system (Limelight, ActiMetrics). At the same time, the numbers of rearing, grooming, defecation and urination of the mouse were recorded.

[2] = tested on: Aβ deposition in the brain; assay: Quantitative analysis of Aβ deposition in the brain (Congo red, 6E10); type: in vivo; conditions: AD mice, Congo red staining and 6E10 immunostaining
Experimental: (§1) APPswe/PS1DE9 (AD) transgenic mice were purchased from Jackson Laboratory, USA (No. 005864), raised in the SPF grade animal house of The Third Affiliated Hospital of The Third Military Medical University. All the processes and correlated experiments applied to the mice were approved and filed with the Animal Ethics Committee of the Third Military Medical University. […] Alternatively, the daily dose for the prophylactic group may be 6.4 mg/kg, and the daily dose for the treatment group may be 12.8 mg/kg. Administration from 3-month old to 9-month old is the prophylactic test, and administration from 9-month old to 12-month old is the therapeutic test After reaching a stated time, the mice in each group received behavioral tests according to the method in the follows. Three mice in each group were taken for Golgi staining. The remaining mice were overly anaesthetized to receive brain anatomy. One side of the cerebral hemisphere was frozen and then for a biochemical analysis, and the other side of the cerebral hemisphere was fixed with 4% paraform for a histological analysis.
The compact Aβ plaque was stained and labelled with Congo red. […] The Aβ plaques in the neopallium and hippocampal area were quantitatively analyzed with ImageJ analysis software to obtain the area percentage of the Aβ plaque and the quantities in a unit area.

IDE = assay: Western blot of Aβ metabolizing enzymes in brain: IDE; type: in vivo; conditions: AD mice brain
Experimental: (§2) APPswe/PS1DE9 (AD) transgenic mice were purchased from Jackson Laboratory, USA (No. 005864), raised in the SPF grade animal house of The Third Affiliated Hospital of The Third Military Medical University. All the processes and correlated experiments applied to the mice were approved and filed with the Animal Ethics Committee of the Third Military Medical University. […] Alternatively, the daily dose for the prophylactic group may be 6.4 mg/kg, and the daily dose for the treatment group may be 12.8 mg/kg. […]
(§3) The enzymes related with Aβ formation and degradation their molecule levels, the levels of hyperphosphprylated Tau proteins, and the levels of synaptic plasticity correlated proteins were all detected with Western blot. […] The blotting was detected with the following antibodies: APP C terminal antibody (171610, Millipore), BACE1 antibody (Millipore), Aβ antibody (6E10, Abcam), Nepriiysin antibody (Millipore), RAGE antibody (Millipore), LRP antibody (5A6, Calbiochem), IDE antibody (epitomics), phosphorylated Tau protein antibody, including pS396 (Signalway), pT231 (Signalway), pS199 (epitomics), pS262 (Abcam), SNAP25 antibody (Millipore), Synaptophysin antibody (Millipore), Synapsin I antibody (Millipore), VAMP1 antibody (Millipore), PSD95 antibody (Millipore), F-actin antibody (Actin) (Sigma-Aldrich). […]

LRP = assay: Western blot of Aβ metabolizing enzymes in brain: LRP; type: in vivo; conditions: AD mice brain
Experimental: as §2, §3

β-secretase (BACE1) = target: T1, β-secretase (BACE1) (Mus musculus, UniProt P56818); assay: β-secretase activity in brain tissues (kit); type: in vivo; conditions: AD mice brain
T1 construct: The proteins in the brain tissue homogenates were extracted with a RIP A buffer solution; from tissue; host or cells: brain of APPswe/PS1DE9 mice
Experimental: as §1
(§4) After homogenating the frozen brain tissues, extraction was conducted with TBS, SDS and formic acid successively. The TBS, SDS and formic acid extracts represent soluble Aβ, loosen senile plaques and compact senile plaques, respectively. […]

Gsk-3β = target: T2, Gsk-3β (Mus musculus, UniProt Q9WV60); assay: Gsk-3β activity in the brain of AD mice; type: in vivo
T2 construct: from tissue; host or cells: brain of APPswe/PS1DE9 mice
Experimental: as §1

[3] = tested on: neural inflammatory reactions; assay: Neural inflammatory reaction in brain (ELISA of IL-6, IL-1β, INF-γ, TNF-β); type: in vivo; conditions: AD mice
Experimental: as §1, §4

N2a/Swe.Δ9 cells = conditions: cited from earlier work

T2 sequence (Q9WV60 whole entry): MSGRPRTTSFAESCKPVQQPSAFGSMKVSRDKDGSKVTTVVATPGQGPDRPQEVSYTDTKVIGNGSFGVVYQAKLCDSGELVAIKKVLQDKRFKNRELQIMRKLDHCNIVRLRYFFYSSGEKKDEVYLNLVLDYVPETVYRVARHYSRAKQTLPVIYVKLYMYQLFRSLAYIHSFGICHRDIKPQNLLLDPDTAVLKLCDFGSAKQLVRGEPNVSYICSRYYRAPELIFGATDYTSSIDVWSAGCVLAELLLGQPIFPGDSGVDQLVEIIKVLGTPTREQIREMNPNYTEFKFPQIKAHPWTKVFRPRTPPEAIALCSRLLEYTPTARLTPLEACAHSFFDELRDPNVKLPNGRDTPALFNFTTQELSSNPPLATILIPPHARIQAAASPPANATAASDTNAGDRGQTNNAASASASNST
Chain of Aβ42 (P05067 672-713 limits assumed): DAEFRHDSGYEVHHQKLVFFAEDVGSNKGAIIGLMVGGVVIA
Chain of Aβ fibers (Aβ 42) (P05067 672-713 limits assumed): as above
T1 sequence (P56818 46-501): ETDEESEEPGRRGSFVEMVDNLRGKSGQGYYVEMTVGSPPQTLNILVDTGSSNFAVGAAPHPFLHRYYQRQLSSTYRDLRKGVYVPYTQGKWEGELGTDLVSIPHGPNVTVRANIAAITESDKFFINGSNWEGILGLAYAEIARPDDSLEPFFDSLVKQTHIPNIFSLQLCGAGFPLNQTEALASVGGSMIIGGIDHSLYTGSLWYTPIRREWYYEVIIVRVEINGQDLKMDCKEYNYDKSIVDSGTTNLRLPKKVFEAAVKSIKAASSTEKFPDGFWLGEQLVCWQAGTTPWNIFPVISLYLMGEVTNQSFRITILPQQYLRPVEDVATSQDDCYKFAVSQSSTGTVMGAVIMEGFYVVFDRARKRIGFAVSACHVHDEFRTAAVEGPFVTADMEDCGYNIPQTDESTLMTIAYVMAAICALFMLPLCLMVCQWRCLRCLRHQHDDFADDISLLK

- inhibition at 3 µM (Aβ42): 50%
- activity of β-secretase (BACE1) (β-secretase (BACE1)): significant decrease
- activity of Gsk-3β (Gsk-3β): inhibit the activity of Gsk-3β
Compound: CC1=NN(c2ccccc2)C(=O)C1 [Edaravone, 3-methyl-1-phenyl-2-pyrazolin-5-one]
- disaggregation of formed Aβ fibers (thioflavin T) (Aβ fibers (Aβ 42)): disaggregate the formed Aβ fibers or larger aggregates effectively
- open field probe distance [1]: significantly higher than in the control group
- open field rearings [1]: significantly higher than in the control group
- Aβ deposition in the brain, of the control group [2]: about 50%
- influence on IDE (IDE): no influence
- influence on LRP (LRP): no influence
- neural inflammatory reaction level in the brain ([3]; p.o.): significantly reduced, too
- neural inflammatory reaction in the brain ([3]; prophylactic and therapeutic test): all reduced significantly
- mitochondrion dependant apoptosis pathway (N2a/Swe.Δ9 cells): inhibit the mitochondrion dependant apoptosis pathway
